Laboratory results as given in publication PMC5610309, “In vivo target exploration of apidaecin based on Acquired Resistance induced by Gene Overexpression (ARGO assay)” (Scientific Reports, 2017).
Where no end group is shown, it is not given here. [ ]: non-standard residue; d: D form.

Assays:
[1] = system: enoyl-ACP reductase (FabI); assay: ARGO assay, positive control, FabI-overexpressing E. coli; assay type: cell-based, Escherichia coli; details: 250 nM triclosan; increasing IPTG (Fig. S2)
Procedure: IPTG Concentration / μM IPTG Concentartion / μM
Figure S2. Acquired resistance assay induced by overexpression of target proteins. A:
concentration. Black line: no triclosan (OD Tc(-)). Gray line: 250 nM triclosan (OD Tc(+)).
overexpression. […] Black line: no
trimethoprim. Gray line: 125 μM trimethoprim. D: The degree of resistance against

[2] = system: dihydrofolate reductase (FolA); details: 125 μM trimethoprim; increasing IPTG (Fig. S2)
Procedure: (§4) The recombinant E. coli strain JM109 harboring pCA24N derivatives were grown on 2 mL LB medium containing 30 µg/mL chloramphenicol in a test tube, with reciprocal shaking at 175 rpm at 37 °C for 18 h. A total of 80 μL culture medium was transferred into fresh 2 mL LB medium containing 30 µg/mL chloramphenicol and different concentrations of IPTG (see Supplementary Information for detail), and further incubated at 37 °C with until the OD at 600 nm reached 0.4. The pre-culture was diluted 10^5 times with PB medium containing 30 µg/mL chloramphenicol so that the initial cell density was approximately 1000 colony forming units/mL. Then a 50 µL aliquot was combined with a 50 µL mixture of apidaecin and IPTG (final concentration of apidaecin was 6.25 µM). As a control, 50 µL IPTG and 50 µL sterilized water were added, respectively. The cells were cultivated in 96-well plates using a microplate shaker (BioShaker M-BR-024 Taitec, Shizuoka, Japan) with shaking at 1200 rpm at 30 °C for 18 h. […] Cell growth in a 96-well plate was optically measured using a microplate reader (iMark Microplate Absorbance Reader, Bio-rad) at a wavelength of 595 nm. The degree of resistance against apidaecin was defined as the OD obtained with the addition of IPTG and apidaecin divided by the OD with the addition of IPTG only.1 Degreeofresistance=ODwithapidaecinandIPTG/ODwithIPTG […]

E. coli [3] = assay: Growth of E. coli in 96-well plate culture with antimicrobial agent; assay type: cell-based, Escherichia coli; details: 500 μM
Procedure: E. coli were grown on 2 mL LB medium in a test tube containing 10 g/L trypton, 5 g/L Bacto yeast extract, and 10 g/L sodium chloride, with reciprocal shaking at 175 rpm at 30 °C for 14 h. A total of 20 μL culture medium was transferred into 2 mL fresh LB medium and incubated at 30 °C until the OD at 600 nm reached 0.2.
The cells from Procedure A were washed with 2 mL PB medium containing 10 g/L trypton and 9 g/L sodium chloride, and re-suspended in 1 mL PB medium. A total of 80 μL medium was combined with 20 μL antimicrobial agents, followed by incubation in a 96-well plate at 30 °C for 4 h with shaking at 1200 rpm.
(§1) The 96-well plate culture was started as well as Procedure B with a modification that the cells were resuspended in 1 mL PB medium containing 100 μg/ml 5-bromo-4-chloro-3-indolyl-β-D-galactopyranoside (X-gal). After 60 min, 0.1 mM IPTG was added and the plate was further incubated for 120 min. The OD of the culture in the test tube was measured using a UV-VIS spectrophotometer (Genesys20, Thermo Scientific, Waltham, MA, USA) at 600 nm, and OD in the 96-well plate was monitored at 595 nm using an iMark Microplate Absorbance Reader (Biorad, Hercules, CA, USA).

[4] = system: lacZ reporter gene expression in E. coli MG1655; assay: Inhibition assay of LacZ expression (X-gal chromogenesis); assay type: cell-based, Escherichia coli; details: 500 μM; E. coli treated 1 h, then IPTG; ΔOD595 with and without X-gal; three trials
Procedure: as §1
E. coli MG1655 cells were cultivated using Procedure D. The activity of LacZ was estimated based on the subtraction of ODs at 595 nm obtained with and without supplement of X-gal.

[5] = system: lacZ mRNA transcription in E. coli MG1655; assay: Quantification of lacZ mRNA by real-time reverse transcriptase-PCR; assay type: cell-based, Escherichia coli; details: 500 μM and 0.1 mM IPTG; quantitative real-time PCR
Procedure: (§2) The 96-well plate culture was started following Procedure B. After 60 min, 0.1 mM IPTG was added and the plate was incubated for an additional 60 min.
The E. coli strain MG1655 from Procedure C were harvested by centrifugation at 4 °C, and total RNA was extracted using Isogen (Nippongene, Toyama, Japan) according to the manufacturer’s instructions. The reverse transcriptase reaction was performed using PrimeScript RT-PCR Kit (Takara, Tokyo, Japan) based on the provided protocol. The lacZ fragment was amplified using a pair of primers: lacZ_RTf1, […] and lacZ_RTr1, with […] used as the standard. The standard curve was made in the range of 10^−3 to 10^−7 ng DNA/μL. A total of 6 μL reverse transcriptase reaction product was combined with 10 μL TaqMan Gene Expression Master Mix (Applied Biosystems, Foster City, CA, USA), 1 μL lacZ_RTf1, 1 μL lacZ_RTr1, and 2 μL TaqMan probe lacZ_2116, […], which was bound to fluorescein as a reporter and NFQ-MGB as a quencher. The samples were prepared in triplicate and transferred to a MicroAmp Fast Optical 48-well Reaction Plate (Applied Biosystems) and sealed with a MicroAmp Optical 48-well Adhesive Film. The plate was centrifuged at 1,970 g for 10 min at 4 °C. Real-time PCR (qPCR) was performed using the StepOne real-time PCR system (Applied Biosystems). […]

[6] = system: β-galactosidase protein synthesis in E. coli MG1655; assay: Immunoblot analysis of native LacZ; assay type: cell-based, Escherichia coli; details: 500 μM and 0.1 mM IPTG
Procedure: as §2
(§3) The E. coli strain MG1655 from Procedure C were harvested and suspended in lysis buffer containing 50 mM sodium phosphate (pH 7.0), 10 mM imidazol, and 300 mM NaCl. The OD was normalized using lysis buffer, after which the crude extract was prepared using sonication on ice 5 s × 5 times. Anti-β-galactosidase antibody (Biotin) ab6645 was purchased from abcam (Cambridge, UK) and used at a 10^5-fold dilution. Immun-Star Goat Anti-Rabbit (GAR)-HRP Conjugate (Biorad) was used as the secondary antibody. Bands were detected using the ECL Select Western Blotting Detection Reagent (GE Healthcare, Little Chalfont, UK) and were recorded on ChemiDox XRS (Biorad). Band density was quantified using ImageJ software.

[7] = system: peptide chain release factor 1 (PrfA); assay: ARGO assay, apidaecin resistance of PrfA-overexpressing E. coli (ASKA clone); assay type: cell-based, Escherichia coli; details: 6.25 μM apidaecin; E. coli JM109 ASKA clone, IPTG-induced; 30 °C, 18 h; OD595; three trials
Procedure: as §4

PrfB = assay: ARGO assay, apidaecin resistance of PrfB-overexpressing E. coli (ASKA clone); assay type: cell-based, Escherichia coli; details: 6.25 μM apidaecin; E. coli JM109 ASKA clone, IPTG-induced; 30 °C, 18 h; OD595
Procedure: as §4

[8] = system: lacZ expression in MG1655(lacZ-UAA), MG1655(lacZ-UGA), MG1655(lacZ-UAG); assay: In vivo inhibitory assay of lacZ expression with different stop codons (immunoblot); assay type: cell-based, Escherichia coli; details: 250 and 500 μM apidaecin
Procedure: as §3
The C-terminal region of the lacZ gene in E. coli chromosomal DNA was replaced with three DNA fragments containing three stop codons (Fig. S4). The DNA fragments including a flippase recognition target (FRT) cassette with a kanamycin-resistant gene, and the C-terminal sequence of the lacZ gene with three stop codons, were amplified from pKD13 using three forward primers: […], […], and […] (stop codons are underlined), and a reverse primer: […]. The template DNA in the PCR products was removed by DpnI treatment. […] Ampicilline-sensitive colonies were chosen and recombination in their chromosomal DNA was evaluated by colony PCR and sequencing. […]

[9] = system: lacZ expression in PURE system (PrfA-dependent termination); assay: Inhibitory assay using the in vitro transcription-translation system (PURE system); assay type: biochemical; details: 200 μM apidaecin; for inhibition ratio of lacZ (UAG) expression: PrfB omitted, 37 °C, 3 h, immunoblot
Procedure: The PCR products were purified by agarose gel extraction and used for second PCR to add the T7 promoter sequence using a forward primer 2, […], and aforementioned reverse primers. The amplified DNA was treated with chloroform/phenol/isoamyl alcohol, concentrated by ethanol precipitation, and diluted to 100 ng/μl using RNase free water. The DNA solution was used for in vitro transcription-translation reaction using PUREfrex ver 1.0 (GeneFrontier Corp., Chiba, Japan). The solution I, II, and III provided by the kit protocol was combined with the apidaecin solution to contain 0 to 200 μM apidaecin. […] Ten microliter solution I, 1 μL solution II, 1 μL solution III, 0.1 μL 6 μM T7 RNA polymerase, 0.5 μL 4 or 0.8 μM RF1, 0.5 μL 4 μM RF3, 0.5 μL 40 μM RRF, and 0–4 μL 1 mM apidaecin were combined and diluted to 19 μL with RNAse free water. The mixture was incubated at room temperature for 15 min, and 1 μL template DNA (LacZ [UAG]) was added. Then the mixture was further incubated at 37 °C from 3 h. Then 1 μL reaction mixture was used for immnoblot analysis.

E. coli [10] = details: relative to wild type apidaecin Ho +; cited from earlier work

Oc1cc(Cl)ccc1Oc1ccc(Cl)cc1Cl [triclosan]
sensitivity of E. coli upon overexpression of FabI [1]: reduced the sensitivity

COc1cc(Cc2cnc(N)nc2N)cc(OC)c1OC [trimethoprim]
sensitivity of E. coli upon overexpression of FolA [2]: reduced the sensitivity

GNNRPVYIPQPRPPHPRL [apidaecin, Apidaecin Ib, proline-rich AMP isolated from the hemolymph of honeybees; purchased from Bex Corp]
inhibition of cell growth (E. coli [3]; PB medium, 96-well plate, 30 °C, OD595, three trials): almost completely inhibited | inhibition of β-galactosidase-mediated chromogenesis [4]: almost completely inhibited | influence on lacZ mRNA transcription [5]: no significant influence | β-galactosidase protein synthesis [6]: considerably diminished | degree of resistance against apidaecin upon PrfA overexpression (OD with apidaecin and IPTG / OD with IPTG) [7]: up to 80% | cell growth in the presence of apidaecin upon PrfB overexpression (PrfB): did not promote cell growth | expression levels of whole proteins ([8]; SDS-PAGE, all three stop codon constructs): decreased expression levels of whole proteins | degree of inhibition of lacZ expression, UAG stop codon versus other constructs ([8]; immunoblot anti-LacZ, UAG recognized only by PrfA): considerably stronger inhibition | inhibition efficiency of lacZ expression by stop codon ([9]; lacZ-UAA, lacZ-UGA, lacZ-UAG templates, UAG stop codon): most efficient inhibition | inhibition ratio of lacZ (UAG) expression ([9]; low PrfA concentration (20 nM PrfA)): 45% | inhibition ratio of lacZ (UAG) expression ([9]; standard PrfA concentration (100 nM PrfA)): 21%

L17D-L mutant of apidaecin Ho + (GKPRPQQVPPRPPHPR[dL])
antibacterial activity toward E. coli compared to wild type peptide (E. coli [10]): 0.1 fold

L18dL apidaecin 1b
antimicrobial effect against E. coli (E. coli [3]; data not shown): no antimicrobial effect
